{"source": "patent US5922838A", "about": "“Cyclic hexapeptide compounds” (Taisho Pharmaceutical Co., Ltd., priority 1995, dated 1999)", "test_system": "colon 26 (mouse colon cancer)", "assay": "Anti-tumor effect on colon 26 (mouse colon cancer), subcutaneous transplant in CDF1 mice", "format": "in vivo", "conditions": "intravenously from day 3 on for 5 days, tumor volume ratio measured day 8, CDF1 male mice, T/C of not more than 42% judged effective", "protocol": "Test Example [Anti-tumor effect on colon 26 (mouse colon cancer)]\nA test was carried out according to the procedure disclosed in Cancer Res., 50. 2290~2295 (1990).\nColon 26 tumor tissue subcultured and transplanted on BALB/c female mice was excised from tumor-bearing mice by incision on the 11th day after the transplantation, and after removal of connective tissues it was minced with scissors. Then, 5 ml of Hank's balanced salt solution was added to 1 g of the tumor, followed by homogenization in a Luer-Lok syringe. After filtration through silicone gauze, cell number in the filtrate cell solution was counted by a hemocytometer and adjusted to 1.0 ×10^6 cells/ml. The resulting cell suspension was subcutaneously transplanted to CDF1 male mice (aged 6 weeks, Charles River, Japan Co.) at the right axillary site at a dose of 0.2 ml/mouse to provide test tumor-bearing mice with each group consisting of 8 mice. The day of cell transplantation was designated as \"day 0\". TI-356 was dissolved into a surfactant (a solution of HCO 60: polyethyleneglycol =2:1), followed by slow addition of physiological saline thereto to prepare test solutions of various concentrations with the ultimate concentration being about 0.5%. The test solutions were intravenously administered from \"day 3\" on for 5 days.\nRA-VII was used as control.\nTumor propagation-inhibiting effect was determined by measuring the principal axis and the conjugate axis of tumor by a vernier caliper on the day following the completion to administer the compound (day 8) and calculating a tumor volume, a tumor volume ratio and T/C (%) according to the following formulae. T/C of not more than 42% was judged to be effective. [formula]", "data": [{"molecule": "COc1ccc(C[C@H]2C(=O)N[C@@H](C)C(=O)N(C)C3Cc4ccc(cc4)Oc4cc(ccc4OCCN(C(C)C)C(C)C)CC(C(=O)N[C@H](C)C(=O)N[C@@H](C)C(=O)N2C)N(C)C3=O)cc1", "note": "(stereo partly drawn) [TI-356]", "values": [{"measurement": "T/C (%)", "setting": "dose 0.8 mg/kg", "value": 42.1, "unit": "%"}, {"measurement": "T/C (%)", "setting": "dose 1.6 mg/kg", "value": 41.5, "unit": "%"}, {"measurement": "T/C (%)", "setting": "dose 3.13 mg/kg", "value": 34.5, "unit": "%"}]}, {"molecule": "COc1ccc(C[C@H]2C(=O)N[C@@H](C)C(=O)N(C)[C@H]3Cc4ccc(cc4)Oc4cc(ccc4OC)C[C@@H](C(=O)N[C@H](C)C(=O)N[C@@H](C)C(=O)N2C)N(C)C3=O)cc1", "note": "[RA-VII]", "values": [{"measurement": "T/C (%)", "setting": "dose 1.6 mg/kg", "value": 55.8, "unit": "%"}, {"measurement": "T/C (%)", "setting": "dose 3.13 mg/kg", "value": 48.0, "unit": "%"}, {"measurement": "T/C (%)", "setting": "dose 6.25 mg/kg", "value": 49.0, "unit": "%"}]}]}
